Measured values published in US6800590B2, “2-Pyrimidinyloxy-n-aryl-benzylamine derivatives,their processes and uses” (Shanghai Institute of Organic Chemistry, priority 2003, dated 2004).

Legend:
[1] = test system: transplanted paddy seedlings; test: Paddy safety, treatment on stem and leaves of transplanted paddy seedlings; format: in vivo; details: 150 g ai/ha, spray on stem and leaves of transplanted paddy seedlings at 4-5-leaves stage
Experimental: The 5-grade evaluation criteria by visual examination for weeding activity and crop safety (i.e. phytotoxicity) are listed in Table 2.
In pots (diameter of 12 cm) containing test soil, paddy seedlings of the given stage are transplanted and grown in the greenhouse at 20-30° C. After growing to 4-5-leaves stage, the spraying treatment on the stem and leaves of paddy seedlings is conducted in a dosage of 150 g ai/ha after diluting the formulation obtained according to Formulating Example 5 into a given concentration. The visual injury and growth state of the individual plants are observed in regular intervals. The evaluation for the crop safety of the compounds is conducted by 5-grade visual observation.

Row | SMILES | Effect on tillering [1] | Stunting [1] | melting point [°C]
1 | COc1cc(OC)nc(Oc2ccccc2CNc2ccc(NC(=O)C(C)C)cc2)n1 [Compound I-101] | None | <10% | 
2 | COc1cc(OC)nc(Oc2ccccc2CNc2ccc(C(=O)NC(C)C)cc2)n1 [Compound I-79, i-propyl 4-[2-(4,6-dimethoxy-2-pyrimidinyloxy)-benzylamino]benzamide] |  |  | 83 to 84
3 | COc1cc(OC)nc(Oc2ccccc2CNc2ccc(NC(=O)c3ccccc3)cc2)n1 [Compound I-102] | None | 10-15% | 
4 | COc1cc(OC)nc(Oc2ccccc2CNc2ccc(NC(=O)C(F)(F)F)cc2)n1 [Compound I-103] | None | 20-25% | 
5 | CCCNC(=O)c1ccc(NCc2ccccc2Oc2nc(OC)cc(OC)n2)cc1 [Compound I-78, n-propyl 4-[2-(4,6-dimethoxy-2-pyrimidinyloxy)-benzylamino]-benzamide] |  |  | 96 to 97
